Values quoted from earlier work in patent US11369575B2, “PPARα agonist compositions and methods of use” (The Board of Regents of the University of Oklahoma, priority 2019, dated 2022).

Conditions: free fenofibrate after IVT dosing

time in which active drug levels disappear: less than 1 week
SMILES: CC(C)OC(=O)C(C)(C)Oc1ccc(C(=O)c2ccc(Cl)cc2)cc1 [fenofibrate]
